Laboratory results published in patent US9693556B2, “Herbicidal pyridazinone derivatives” (SYNGENTA LIMITED, priority 2011, dated 2017).

Legend:
Format in all cases: in vivo
Solanum nigrum (SOLNI) [1] = assay: Pre-emergence herbicidal glasshouse test on Solanum nigrum; details: pre-emergence; 1000 g/h; evaluated after 13 days
Procedure, shortened: (§1)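 Read-out: percentage herbicidal damage 13 days after spraying, given on a five-point scale (5=80-100%, 4=60-79%, 3=40-59%, 2=20-39%, 1=0-19%). Pots of standard soil; application at 1000 g/h, one day post-sowing for pre-emergence, eight days for post-emergence.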

Setaria faberi (SETFA) [2] = assay: Post-emergence herbicidal glasshouse test on Setaria faberi; details: post-emergence; 1000 g/h; evaluated after 13 days
Procedure, shortened: as §1

[3] = test system: Amaranthus retoflexus (AMARE); assay: Post-emergence herbicidal glasshouse test on Amaranthus retoflexus; details: post-emergence; 1000 g/h; evaluated after 13 days
Procedure, shortened: as §1

Setaria faberi (SETFA) [4] = assay: Pre-emergence herbicidal glasshouse test on Setaria faberi; details: pre-emergence; 1000 g/h; evaluated after 13 days
Procedure, shortened: as §1

[5] = test system: Amaranthus retoflexus (AMARE); assay: Pre-emergence herbicidal glasshouse test on Amaranthus retoflexus; details: pre-emergence; 1000 g/h; evaluated after 13 days
Procedure, shortened: as §1

[6] = test system: Ipomoea hederacea (IPOHE); assay: Post-emergence herbicidal glasshouse test on Ipomoea hederacea; details: post-emergence; 1000 g/h; evaluated after 13 days
Procedure, shortened: as §1

Solanum nigrum (SOLNI) [7] = assay: Post-emergence herbicidal glasshouse test on Solanum nigrum; details: post-emergence; 1000 g/h; evaluated after 13 days
Procedure, shortened: as §1

[8] = test system: Ipomoea hederacea (IPOHE); assay: Pre-emergence herbicidal glasshouse test on Ipomoea hederacea; details: pre-emergence; 1000 g/h; evaluated after 13 days
Procedure, shortened: as §1

[9] = test system: Alopecurus myosuroides (ALOMY); assay: Pre-emergence herbicidal glasshouse test on Alopecurus myosuroides; details: pre-emergence; 1000 g/h; evaluated after 13 days
Procedure, shortened: as §1

[10] = test system: Alopecurus myosuroides (ALOMY); assay: Post-emergence herbicidal glasshouse test on Alopecurus myosuroides; details: post-emergence; 1000 g/h; evaluated after 13 days
Procedure, shortened: as §1

[11] = test system: Echinochloa crus-galli (ECHCG); assay: Post-emergence herbicidal glasshouse test on Echinochloa crus-galli; details: post-emergence; 1000 g/h; evaluated after 13 days
Procedure, shortened: as §1

[12] = test system: Echinochloa crus-galli (ECHCG); assay: Pre-emergence herbicidal glasshouse test on Echinochloa crus-galli; details: pre-emergence; 1000 g/h; evaluated after 13 days
Procedure, shortened: as §1

| Compound | PRE Application SOLNI herbicidal damage (five point scale) (Solanum nigrum (SOLNI) [1]) | POST Application SETFA herbicidal damage (five point scale) (Setaria faberi (SETFA) [2]) | POST Application AMARE herbicidal damage (five point scale) [3] | PRE Application SETFA herbicidal damage (five point scale) (Setaria faberi (SETFA) [4]) | PRE Application AMARE herbicidal damage (five point scale) [5] | POST Application IPOHE herbicidal damage (five point scale) [6] | POST Application SOLNI herbicidal damage (five point scale) (Solanum nigrum (SOLNI) [7]) | PRE Application IPOHE herbicidal damage (five point scale) [8] | PRE Application ALOMY herbicidal damage (five point scale) [9] | POST Application ALOMY herbicidal damage (five point scale) [10] | POST Application ECHCG herbicidal damage (five point scale) [11] | PRE Application ECHCG herbicidal damage (five point scale) [12] |
| --- | --- | --- | --- | --- | --- | --- | --- | --- | --- | --- | --- | --- |
| COc1ccc(Cn2cccc(-c3cnn(C)c(=O)c3O)c2=O)cc1 [Compound 9.004] | 1 (1=0-19% damage) | 1 (1=0-19% damage) | 4 (4=60-79% damage) | 1 (1=0-19% damage) | 1 (1=0-19% damage) | 3 (3=40-59% damage) | 4 (4=60-79% damage) | 1 (1=0-19% damage) | 1 (1=0-19% damage) | 1 (1=0-19% damage) | 1 (1=0-19% damage) | 1 (1=0-19% damage) |
| CCn1ncc(-c2c(Cl)ccc(Cl)c2Cl)c(O)c1=O [Compound 1.010] | 1 (1=0-19% damage) | 1 (1=0-19% damage) | 2 (2=20-39% damage) | 1 (1=0-19% damage) | 1 (1=0-19% damage) | 4 (4=60-79% damage) | 4 (4=60-79% damage) | 1 (1=0-19% damage) | 1 (1=0-19% damage) | 1 (1=0-19% damage) | 1 (1=0-19% damage) | 1 (1=0-19% damage) |
| Cc1ccccc1-c1c(C(F)(F)F)ccn(-c2cnn(C)c(=O)c2O)c1=O [Compound 1.053] | 5 (5=80-100% damage) | 4 (4=60-79% damage) | 5 (5=80-100% damage) | 4 (4=60-79% damage) | 5 (5=80-100% damage) | 5 (5=80-100% damage) | 5 (5=80-100% damage) | 2 (2=20-39% damage) | 5 (5=80-100% damage) | 5 (5=80-100% damage) | 5 (5=80-100% damage) | 5 (5=80-100% damage) |
| Cn1ncc(-c2ccc(C#N)cc2C(F)(F)F)c(O)c1=O [Compound 1.071] | 5 (5=80-100% damage) | 4 (4=60-79% damage) | 5 (5=80-100% damage) | 4 (4=60-79% damage) | 5 (5=80-100% damage) | 5 (5=80-100% damage) | 5 (5=80-100% damage) | 2 (2=20-39% damage) | 4 (4=60-79% damage) | 3 (3=40-59% damage) | 5 (5=80-100% damage) | 5 (5=80-100% damage) |
| Cc1c(-c2cnn(C(C)(C)C)c(=O)c2O)ccc(S(C)(=O)=O)c1C1=NOCC1 [Compound 1.131] | 4 (4=60-79% damage) | 4 (4=60-79% damage) | 5 (5=80-100% damage) | 1 (1=0-19% damage) | 3 (3=40-59% damage) | 5 (5=80-100% damage) | 5 (5=80-100% damage) | 1 (1=0-19% damage) | 1 (1=0-19% damage) | 4 (4=60-79% damage) | 5 (5=80-100% damage) | 1 (1=0-19% damage) |
| CN(Cc1nc(C(F)(F)F)ccc1-c1cnn(C)c(=O)c1O)S(C)(=O)=O [Compound 1.040] | 5 (5=80-100% damage) | 5 (5=80-100% damage) | 5 (5=80-100% damage) | 5 (5=80-100% damage) | 5 (5=80-100% damage) | 5 (5=80-100% damage) | 5 (5=80-100% damage) | 4 (4=60-79% damage) | 5 (5=80-100% damage) | 4 (4=60-79% damage) | 5 (5=80-100% damage) | 5 (5=80-100% damage) |
| Cn1ncc(-n2ccc(C(F)(F)F)c(-c3cccc(S(C)(=O)=O)c3)c2=O)c(O)c1=O [Compound 7.023] | 5 (5=80-100% damage) | 4 (4=60-79% damage) | 5 (5=80-100% damage) | 4 (4=60-79% damage) | 5 (5=80-100% damage) | 1 (1=0-19% damage) | 5 (5=80-100% damage) | 2 (2=20-39% damage) | 2 (2=20-39% damage) | 1 (1=0-19% damage) | 4 (4=60-79% damage) | 2 (2=20-39% damage) |
| CC(C)n1ncc(-c2c(Cl)cccc2Cl)c(O)c1=O [Compound 1.016] | 1 (1=0-19% damage) | 3 (3=40-59% damage) | 5 (5=80-100% damage) | 1 (1=0-19% damage) | 1 (1=0-19% damage) | 2 (2=20-39% damage) | 3 (3=40-59% damage) | 1 (1=0-19% damage) | 1 (1=0-19% damage) | 2 (2=20-39% damage) | 2 (2=20-39% damage) | 1 (1=0-19% damage) |
